Structures are written as SMILES.

The test system of one experiment is T-47D. The experiment in a line: Caspase cascade activation assay in T-47D cells (N-(Ac-DEVD)-N'-ethoxycarbonyl-R110 fluorogenic substrate). Type of experiment: cell-based. Conditions: T-47D human breast cancer cells, 24 h incubation; for EC50: T47D, sigmoidal dose-response, read-out: Caspase potency EC50; for Caspase activity (Ratio): ratio of net RFU of test compound to control. As to the method:
(§1) Human breast cancer cell lines T-47D and ZR-75-1 were grown according to media component mixtures designated by American Type Culture Collection+10% FCS (Invitrogen Corporation), in a 5% CO2-95% humidity incubator at 37° C. T-47D and ZR-75-1 cells were maintained at a cell density between 30 and 80% confluency at a cell density of 0.1 to 0.6×10^6 cells/mL. Cells were harvested at 600×g and resuspended at 0.65×10^6 cells/mL into appropriate media+10% FCS. An aliquot of 45 μl of cells was added to a well of a 96-well microtiter plate containing 5 μl of a 10% DMSO in RPMI-1640 media solution containing about […] of 2-amino-3-cyano-4-(5-methyl-pyridin-3-yl)-7-methyl-4H-pyrrolo[2,3-h]chromene (Example 10) or other test compound (0.016 to 1 μM final). An aliquot of 45 μl of cells was added to a well of a 96-well microtiter plate containing 5 μl of a 10% DMSO in RPMI-1640 media solution without test compound as the control sample. The samples were mixed by agitation and then incubated at 37° C. for 24 h in a 5% CO2-95% humidity incubator. After incubation, the samples were removed from the incubator and 50 μl of a solution containing 20 μM of N-(Ac-DEVD)-N′-ethoxycarbonyl-R110 (SEQ ID No:1) fluorogenic substrate (Cytovia, Inc.; U.S. Pat. No. 6,335,429), 20% sucrose (Sigma), 20 mM DTT (Sigma), 200 mM NaCl (Sigma), 40 mM Na PIPES buffer pH 7.2 (Sigma), and 500 μg/ml lysolecithin (Calbiochem) was added. The samples were mixed by agitation and incubated at room temperature. Using a fluorescent plate reader (Model 1420 Wallac Instruments), an initial reading (T=0) was made approximately 1-2 min after addition of the substrate solution, employing excitation at 485 nm and emission at 530 nm, to determine the background fluorescence of the control sample. After the 3 h incubation, the samples were read for fluorescence as above (T=3 h).
(§2) The Relative Fluorescence Unit values (RFU) were used to calculate the sample readings as follows: RFU(T=3h)−Control RFU(T=0)=Net RFU(T=3h) The activity of caspase cascade activation was determined by the ratio of the net RFU value for 2-amino-3-cyano-4-(5-methyl-pyridin-3-yl)-7-methyl-4H-pyrrolo[2,3-h]chromene or other test compound to that of control samples. The EC50 (nM) was determined by a sigmoidal dose-response calculation (Prism 2.0, GraphPad Software Inc.).

The subject of the next experiment is ZR-75-1. The experiment in a line: Caspase cascade activation assay in ZR-75-1 cells (N-(Ac-DEVD)-N'-ethoxycarbonyl-R110 fluorogenic substrate). Type of experiment: cell-based. The conditions noted are these: ZR-75-1 human breast cancer cells, 24 h incubation; for Caspase activity (Ratio): ratio of net RFU of test compound to control; for EC50: sigmoidal dose-response, read-out: Caspase potency EC50. As for the experimental part:
as §1, §2

As for `Cn1ccc2c3c(ccc21)C(c1cccc(Cl)c1)C(C#N)=C(N)O3` (centres unmarked) [Example 40C, 2-Amino-3-cyano-4-(3-chlorophenyl)-7-methyl-4H-pyrrolo[2,3-h]chromene], in the experiment with T-47D, the EC50 was determined as 14 nM and the “Caspase activity (Ratio)” value stood at 4.0. For the same molecule, in the experiment with ZR-75-1, the “Caspase activity (Ratio)” value was determined as 2.7 and the EC50 worked out at 7.9 nM.
In the case of `Cn1ccc2c3c(ccc21)C(c1cc(Cl)cc(Cl)c1)C(C#N)=C(N)O3` (centres unmarked) [Example 40D, 2-Amino-3-cyano-4-(3,5-dichlorophenyl)-7-methyl-4H-pyrrolo[2,3-h]chromene], in the experiment with T-47D, the EC50 stood at 25 nM and the “Caspase activity (Ratio)” value came to 3.3. Also, in the experiment with ZR-75-1, the “Caspase activity (Ratio)” value turned out to be 2.9 and the EC50 was 15 nM.
On the same counts, the results for `Cn1ccc2c3c(ccc21)C(c1ccc(Cl)c(Cl)c1)C(C#N)=C(N)O3` (centres unmarked) [Example 40E, 2-Amino-3-cyano-4-(3,4-dichlorophenyl)-7-methyl-4H-pyrrolo[2,3-h]chromene] are greater than 100 nM, 1.3, 3.2 and 81 nM.
For `COc1cc(C2C(C#N)=C(N)Oc3c2ccc2c3c(C)cn2C)cc(Br)c1OC` (centres unmarked) [Example 40F, 2-Amino-3-cyano-4-(3-bromo-4,5-dimethoxyphenyl)-7,9-dimethyl-4H-pyrrolo[2,3-h]chromene], in the experiment on T-47D, the EC50 came out at 42 nM and the “Caspase activity (Ratio)” value came to 2.6. In the experiment with ZR-75-1, the “Caspase activity (Ratio)” value is 3.9 and the EC50 came to 26 nM.
`Cn1ccc2c3c(ccc21)C(c1ccc(F)c(F)c1)C(C#N)=C(N)O3` (centres unmarked) [Example 40G, 2-Amino-3-cyano-4-(3,4 difluorophenyl)-7-methyl-4H-pyrrolo[2,3-h]chromene]: in the experiment on T-47D, the EC50 stood at 29 nM and the “Caspase activity (Ratio)” value worked out at 4.6. Besides, in the experiment on ZR-75-1, the “Caspase activity (Ratio)” value is given as 5.9 and the EC50 is 15 nM.
For `Cn1ccc2c3c(ccc21)C(c1ccc(Cl)c(F)c1)C(C#N)=C(N)O3` (centres unmarked) [Example 40H, 2-Amino-3-cyano-4-(3-fluoro-4-chlorophenyl)-7-methyl-4H-pyrrolo[2,3-h]chromene], in the experiment with T-47D, the EC50 is greater than 100 nM and the “Caspase activity (Ratio)” value came out at 1.3. In the experiment with ZR-75-1, the “Caspase activity (Ratio)” value was found to be 6.0 and the EC50 was 56 nM.
As for `Cn1ccc2c3c(ccc21)C(c1ccc(F)c(Br)c1)C(C#N)=C(N)O3` (centres unmarked) [Example 40I, 2-Amino-3-cyano-4-(3-bromo-4-fluorophenyl)-7-methyl-4H-pyrrolo[2,3-h]chromene], in the experiment with T-47D, the EC50 was found to be 29 nM and the “Caspase activity (Ratio)” value came out at 3.9. In addition, in the experiment on ZR-75-1, the “Caspase activity (Ratio)” value turned out to be 4.4 and the concentration for a half-maximal effect (EC50) is 14 nM.
For `Cn1ccc2c3c(ccc21)C(c1ccc(F)c(C#N)c1)C(C#N)=C(N)O3` (centres unmarked) [Example 40J, 2-Amino-3-cyano-4-(3-cyano-4-fluorophenyl)-7-methyl-4H-pyrrolo[2,3-h]chromene], in that order: 29 nM, 3.6, 5.8 and 14 nM.
In the case of `COc1cncc(C2C(C#N)=C(N)Oc3c2ccc2c3ccn2C)c1` (centres unmarked) [Example 41, 2-Amino-3-cyano-4-(5-methoxy-pyridin-3-yl)-7-methyl-4H-pyrrolo[2,3-h]chromene], the EC50 with T-47D stood at 4 nM; in the experiment on ZR-75-1 it was 2 nM. Further, the “Caspase activity (Ratio)” value is on record as 3.8 in the experiment with T-47D and 4.2 with ZR-75-1.
Consider `CC(C)n1ccc2c3c(ccc21)C(c1cc(Cl)cc(Cl)c1)C(C#N)=C(N)O3` (centres unmarked) [Example 42, 2-Amino-3-cyano-4-(3,5-dichloro-phenyl)-7-isopropyl-4H-pyrrolo [2,3-h]chromene], for which the EC50 with T-47D is greater than 100 nM; in the experiment with ZR-75-1 it was 57 nM. Further, the “Caspase activity (Ratio)” value in the experiment on T-47D is listed as 1.8; in the experiment with ZR-75-1, 2.6.
`COc1cc(C2C(C#N)=C(N)Oc3c2ccc2c3ccn2C(C)C)cc(Br)c1OC` (centres unmarked) [Example 43, 2-Amino-3-cyano-4-(3-bromo-4,5-dimethoxy-phenyl)-7-isopropyl-4H-pyrrolo[2,3-h]chromene]: the EC50 in the experiment on T-47D stood at 58 nM; in the experiment on ZR-75-1, 55 nM. The “Caspase activity (Ratio)” value in the experiment with T-47D is on record as 2.5; in the experiment with ZR-75-1 it was 6.3.

These data come from patent US7528164B2, “Substituted 4-aryl-4h-pyrrolo[2,3-h]chromenes and analogs as activators of caspases and inducers of apoptosis and the use thereof” (Cytovia, Inc., priority 2002, dated 2009).
